In US20250170101A1, “MONOACYLGLYCEROL LIPASE INHIBITORS AND USE THEREOF FOR THE TREATMENT AND MANAGEMENT OF PAIN AND RELATED CONDITIONS” (Psy Therapeutics, Inc., priority 2021, published 2025):
Each block holds one molecule with its values, some of them ahead of it.

Assays:
[1] = system: Acute Post-Operative Pain (Brennan) mice model; test: Acute Post-Operative Pain (Brennan) mice model, Example 26; format: in vivo, Mus Musculus C57BL/6; conditions: IP; for mechanical allodynia (Threshold, g) vs Vehicle control: at 30, 60 & 90 min
Excerpt: The aim of this experiment was to evaluate effect of the test compounds Compound 74 and JZL-184 in Acute Post-Operative Pain (Brennan) mice model. • Mouse model: Mus Musculus & C57BL/6, male, 6-8 weeks • End points: mechanical allodynia and brain 2-AG (optional)
(§1) • Animals was anaesthetized under Isoflorane anesthesia. • Using aseptic conditions, prepared the plantar aspect of left hind paw with a 10% povidone-iodine solution and place the paw through a hole in a sterile cloth drape. Made a 0.5-cm longitudinal incision through skin and fascia of the paw with a no. 11 scalpel blade, beginning 0.2 cm from the proximal edge of the heel and extending toward the digits. • Elevated the underlying muscle with small curved forceps and incised longitudinally with the scalpel blade, keeping the muscle origin and insertion intact. • After homeostasis with gentle pressure, apposed the skin with 5-0 slik sutures. Cover the wound site.

MAGL enzyme = target: T1, MAGL enzyme (Homo sapiens, UniProt Q99685); test: MAGL reversible inhibition assay (washout), Example 22; format: biochemical; design: % MAGL activity returning after washout: concentration or dose not given beside the values; conditions: for degree to which MAGL enzymatic activity returned following washout of test compounds: pre-washout compound concentration 1 μM; for % MAGL activity returning after washout: relative to control (no inhibitor before washout), immediately following 30 minute washout
T1 sequence (Q99685 1-303): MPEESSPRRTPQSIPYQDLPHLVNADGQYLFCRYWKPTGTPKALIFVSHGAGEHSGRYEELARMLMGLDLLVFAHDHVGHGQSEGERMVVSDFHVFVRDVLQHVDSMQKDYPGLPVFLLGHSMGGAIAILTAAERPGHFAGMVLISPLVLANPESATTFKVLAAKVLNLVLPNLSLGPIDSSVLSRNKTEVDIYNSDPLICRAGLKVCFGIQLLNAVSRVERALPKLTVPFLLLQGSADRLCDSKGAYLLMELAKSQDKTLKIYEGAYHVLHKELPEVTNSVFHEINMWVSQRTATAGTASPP
Method: The reversible mechanism of MAGL inhibition of a test compound of Formula (I) can be determined. Flag-tagged MAGL enzyme will be immobilized on anti-Flag beads. Immobilized enzyme will be incubated+/−inhibitor at a dose that produces complete inhibition. Colorimetric substrate (4-NPA) will be added and the reaction monitored on a plate reader for 30 minutes to verify complete inhibition. Immobilized enzyme will then be washed thoroughly to remove the inhibitor, and fresh substrate will be added. The reaction will be monitored for an additional 30 minutes; returning enzymatic activity will indicate reversibility of inhibition. […]
For some test compounds, % activity returning after washout may be less than 100%/if complete compound unbinding takes longer than 30 minutes.

[2] = system: Post-Operative Pain (Brennan) mouse model; test: Chronic treatment in Post-Operative Pain (Brennan) mouse model, Example 27; format: in vivo, Mus Musculus C57BL/6; conditions: IP
Excerpt: The aim of this experiment was to evaluate effect of the test compounds Compound 74 and JZL-184 in after Chronic treatment in a Post-Operative Pain (Brennan) mouse model. • Mouse model: Mus Musculus & C57BL/6, male, 6-8 weeks • End points: mechanical allodynia and body weight
as §1

human recombinant FAAH = target: T2, human recombinant FAAH (Homo sapiens, UniProt O00519); test: FAAH counter screen (Cayman FAAH Inhibitor Screening Assay Kit), Example 21; format: biochemical
T2 construct: purchased Cayman kit Item No. 10005196; FAAH enzyme 700302
T2 sequence (O00519 1-579): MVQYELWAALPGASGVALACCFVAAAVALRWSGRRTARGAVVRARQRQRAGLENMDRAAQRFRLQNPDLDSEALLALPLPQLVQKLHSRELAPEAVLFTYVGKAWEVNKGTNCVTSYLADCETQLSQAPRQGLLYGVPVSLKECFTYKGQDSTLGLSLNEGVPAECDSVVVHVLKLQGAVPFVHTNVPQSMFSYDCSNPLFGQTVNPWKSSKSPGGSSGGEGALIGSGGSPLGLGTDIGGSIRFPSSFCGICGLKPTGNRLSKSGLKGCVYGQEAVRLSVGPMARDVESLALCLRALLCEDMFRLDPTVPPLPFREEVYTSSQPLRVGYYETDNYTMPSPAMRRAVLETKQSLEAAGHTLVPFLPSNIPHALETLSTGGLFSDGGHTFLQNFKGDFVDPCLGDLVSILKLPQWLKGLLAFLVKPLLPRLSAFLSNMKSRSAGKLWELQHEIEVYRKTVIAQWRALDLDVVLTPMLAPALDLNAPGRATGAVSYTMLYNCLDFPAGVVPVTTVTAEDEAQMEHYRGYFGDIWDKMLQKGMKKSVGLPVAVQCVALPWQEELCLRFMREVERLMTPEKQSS
Method: Comparative compound potency at FAAH can be obtained with the following assay.
MAGL inhibitor compounds were also counter-screened for FAAH inhibition potency using the following assay. Assessment of FAAH inhibition was performed using Fatty Acid Amide Hydrolase Inhibitor Screening Assay Kit (Cayman Item No. 10005196) following manufacture's instruction with some modifications. The kit utilizes human recombinant FAAH and the fluorescent substrate, AMC Arachidonoyl amide (AAMCA). 5 μL of assay buffer (125 mM Tris, pH 9.0, 1 mM EDTA, i.e. ethylenediaminetetraacetic acid) was added to a 384-well black plate (Corning, 3573). Test compounds and control inhibitor JZL-195 (Cayman Chemical, 13668) were tested in 10-concentration IC50 mode with 3-fold serial dilution at a starting concentration of 100 μM and 10 μM, respectively. 300 nL or 30 nL of test compounds were delivered into a 384-well black plate (Corning, 3573) using a Labcyte Echo, followed by addition of 15 μL of FAAH enzyme (Cayman, 700302) in assay buffer. After a 5-minute pre-incubation at room temperature, 10 μL of AAMCA was added in assay buffer to start the reaction. Final concentration of FAAH enzyme is not specified and AAMCA substrate was used at the 20 uM. After these dilutions, the final concentration of the test compounds ranged from 100 μM to 5.08 nM or 10 μM down to 0.508 nM. The reaction was allowed to progress for 60 minutes, while the plate was read on an Envision plate reader at an Ex/Em of 350/460 nm with readings every minute. The data was analyzed in Microsoft Excel, using the slope between 30 and 59 minutes. The average of the no-enzyme wells (background) was subtracted from the data. The background-subtracted slope data was converted to % activity using the average of wells with enzyme and DMSO vehicle. IC50 values were calculated using GraphPad software (Sigmoidal dose response, variable slope equation).
Compounds listed in Table D2 were tested in the FAAH Counterscreen of Example 21

2-AG levels in brain = test: Estimation of 2-AG in mouse brain after single intraperitoneal administration, Examples 23 and 24; format: in vivo, male C57BL/6 mice; conditions: single IP
Method: (§2) This experiment was performed to determine plasma pharmacokinetics and estimate 2-AG levels in male C57BL/6 mice brain following a single intraperitoneal administration of Compound-74 (Dose: 5, 15, 50 and 150 mg/kg). The experiment was repeated at 150 mg/kg on 3 separate test dates to obtain the data shown in FIG. 1A (plasma and brain concentration of Compound 74 30 minutes after IP injection), and on the first and third test dates to obtain the data shown in FIG. 1B (brain concentration of 2-AG30 minutes after IP injection of Compound 74). • Compound 74, Molecular Wt.: 405.46 (Freebase), % Purity: Considered 100%. • Formulation: DMSO • Dose: 5, 15, 50 and 150 mg/kg • Dose volume: 2 mL/kg • Feeding regimen: freely fed • Groups:
Study Design: A total of thirty male mice were used into the study and divided in to five groups with six mice in each group (n=6 mice/group/treatment design). Animals in Group 1 to Group 4 were administered intraperitoneally with Compound 74 solution formulation at 5, 15, 50 and 150 mg/kg dose, respectively. Animals in Group 5 were administered intraperitoneally with vehicle at 2 mL/kg dose. Blood and brain samples were collected at 0.5 h post dose. […]
Analysis: Brain samples were processed for 2-AG estimation. 2-AG levels were the detected values. Plasma concentrations were determined by fit for purpose LC-MS/MS method. […]

[3] = Plasma and brain concentrations after single intraperitoneal administration, Examples 23 and 24; format: in vivo, male C57BL/6 mice; conditions: 0.5 h
Method: as §2
Study Design: A total of thirty male mice were used into the study and divided in to five groups with six mice in each group (n=6 mice/group/treatment design). Animals in Group 1 to Group 4 were administered intraperitoneally with Compound 74 solution formulation at 5, 15, 50 and 150 mg/kg dose, respectively. Animals in Group 5 were administered intraperitoneally with vehicle at 2 mL/kg dose. Blood and brain samples were collected at 0.5 h post dose. Mice were euthanized by cervical dislocation and brain samples were dissected rapidly and snap frozen in liquid nitrogen, weighed and homogenized in 2 mL of acetonitrile containing 2-AGd5. Blood samples were centrifuged at 4000 rpm for 10 minutes at 4° C. Plasma was harvested and separated in pre-labeled tubes. All samples were stored below −70° C. until bioanalysis.
Analysis: Brain samples were processed for 2-AG estimation. 2-AG levels were the detected values. Plasma concentrations were determined by fit for purpose LC-MS/MS method. LLOQ: 5.09 ng/mL (Plasma and brain)
This experiment was performed to determine plasma pharmacokinetics and estimate 2-AG levels in male C57BL/6 mice brain following a single intraperitoneal administration of Compound-473 (Dose: 20 mg/kg). • Compound 473, Molecular Wt.: 463.41 (Freebase), % Purity: >98%. • Formulation: DMSO • Dose: 20 mg/kg • Dose volume: 10 mL/kg • Feeding regimen: Food and water ad libitum • Groups:
Study Design: A total of twelve C57BL/6 male mice were used in this study. Six animals were administered intraperitoneally with solution formulation of PSY-05-00473-002 at 20 mg/kg dose. Six animals were administered vehicle (5% NMP, 5% Solutol HS15 and 90% Normal saline) intraperitoneally at 10 mL/kg dose volume. Blood samples (approximately 60 μL) were collected under light isoflurane anesthesia from a set of six mice at 0.5 h. Plasma was harvested by centrifugation of blood and stored at −70±10° C. until analysis. After blood collection, mice were euthanized by cervical dislocation and brain samples were dissected rapidly and snapped frozen in liquid nitrogen and stored at −80. To homogenize, removed brain samples from the freezer, were divided into two equal hemispheres and weighed while still in frozen condition, and begun homogenization/extraction procedure without allowing the brain samples to thaw. One part is used for PK estimation and the other part is used for 2-AG estimation.
Analysis: For PK estimation, brain samples were homogenized in 2 volumes of PBS of brain weight. Total homogenate volume was three times of the brain weight. For 2-AG estimation, the frozen brain samples were homogenized in 2 mL acetonitrile containing 2-AGd5 (8.88 nmoles) will be incubated overnight at −20° C. to precipitate proteins. Blood samples were centrifuged at 10000 rpm for 10 minutes at 4° C. All samples were stored below −70° C. until bioanalysis. Plasma and brain homogenate samples were quantified by fit-for-purpose LC-MS/MS method (LLOQ: 1.02 ng/mL for plasma and 2.03 ng/mL for brain).

SMILES: O=C(Oc1ccc([N+](=O)[O-])cc1)N1CCC(C(O)(c2ccc3c(c2)OCO3)c2ccc3c(c2)OCO3)CC1 [JZL-184, reference compound]
mechanical allodynia (Threshold, g) vs Vehicle control ([1]; 40 mg/kg): significant decrease in mechanical allodynia | Clinical observation ([1]; 40 mg/kg, post IP administration): mild hypolocomotion | degree to which MAGL enzymatic activity returned following washout of test compounds (MAGL enzyme): complete lack of return of MAGL enzymatic activity | % MAGL activity returning after washout (MAGL enzyme): <1% | mechanical allodynia (Threshold, g) vs Vehicle control ([2]; 40 mg/kg, single dose): significant decrease in mechanical allodynia

degree to which MAGL enzymatic activity returned following washout of test compounds (MAGL enzyme): 47 | % MAGL activity returning after washout (MAGL enzyme): <50% | IC50 (human recombinant FAAH; Method B: starting concentration of 10 μM): > 10 µM
SMILES: O=C(c1cc(O)ccc1F)N1CC2(CC(n3cc(C4CC4)c(-c4ccccc4F)n3)C2)C1 [Compound 493]

SMILES: Cc1cc(C2CC3(C2)CN(C(=O)c2cc(O)ccc2F)C3)n(-c2ccccc2C)n1 [Compound 74, (2-fluoro-5-hydroxyphenyl)(6-(3-methyl-1-(o-tolyl)-1H-pyrazol-5-yl)-2-azaspiro[3.3]heptan-2-yl)methanone]
mechanical allodynia (Threshold, g) vs Vehicle control ([1]; 50 & 150 mg/kg): significant decrease in mechanical allodynia | levels of 2-AG compared to baseline (vehicle treatment) (2-AG levels in brain; 5 and 15 mg/kg dose): elevated slightly | levels of 2-AG compared to baseline (vehicle treatment) (2-AG levels in brain; 50 and 150 mg/kg dose groups): significant increase | Brain Plama Ratio (Kp) range ([3]; IP 5 mg/kg): 0.51-0.68 | Plasma concentration range ([3]; IP 5 mg/kg): 12 to 186 ng/mL | Brain Plama Ratio (Kp) range ([3]; IP 15 mg/kg): 0.16-0.44 | Brain concentration range ([3]; IP 15 mg/kg): 25 to 67 ng/g | Plasma concentration range ([3]; IP 15 mg/kg): 70 to 414 ng/mL | Brain Plama Ratio (Kp) range ([3]; IP 50 mg/kg): 0.06-0.08 | Plasma concentration range ([3]; IP 50 mg/kg): 447 to 14914 ng/mL | Brain Plama Ratio (Kp) range ([3]; IP 150 mg/kg): 0.07-0.20 | Brain concentration range ([3]; IP 150 mg/kg): 2412 to 12111 ng/g | Plasma concentration range ([3]; IP 150 mg/kg): 34920 to 70256 ng/mL | degree to which MAGL enzymatic activity returned following washout of test compounds (MAGL enzyme): 162 | % MAGL activity returning after washout (MAGL enzyme): >50% | mechanical allodynia (Threshold, g) vs Vehicle control ([2]; 50 mg/kg, QD×8 days): significant decrease in mechanical allodynia | mechanical allodynia (Threshold, g) vs Vehicle control ([2]; 50 & 150 mg/kg, single dose): significant decrease in mechanical allodynia

IC50 (human recombinant FAAH; Method A: starting concentration of 100 μM): > 10 µM
SMILES: Cc1cc(C2CC3(C2)CN(C(=O)c2ccccc2F)C3)n(-c2ccccc2C)n1 [Compound 122, (2-fluorophenyl)(6-(3-methyl-1-(o-tolyl)-1H-pyrazol-5-yl)-2-azaspiro[3.3]heptan-2-yl)methanone]
